According to ChEMBL document CHEMBL1201862, “PubChem BioAssay data set” (2004):
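In this assay, cells in 96-well plates receive the compound at five concentrations for 48 hours. Endpoints are linearly interpolated between the surrounding concentrations. GI50: concentration for 50% inhibition of growth.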 The source made the active and inactive calls. Rule as the data show it: active = GI50 up to about 1.1 µM and inactive = higher.

Assays:
Experiment in all cases: growth of human tumour cells (NCI), 48 h
786-0 = tested on: 786-0
A498 = tested on: A498
A549 = tested on: A549
ACHN = tested on: ACHN
BT-549 = tested on: BT-549
CAKI-1 = tested on: CAKI-1
CCRF-CEM = tested on: CCRF-CEM
COLO 205 = tested on: COLO 205
DU-145 = tested on: DU-145
EKVX = tested on: EKVX
HCC 2998 = tested on: HCC 2998
HCT-116 = tested on: HCT-116
HCT-15 = tested on: HCT-15
HL-60 = tested on: HL-60
HOP-62 = tested on: HOP-62
HOP-92 = tested on: HOP-92
HT-29 = tested on: HT-29
Hs-578T = tested on: Hs-578T
IGROV-1 = tested on: IGROV-1
K562 = tested on: K562
KM12 = tested on: KM12
LOX IMVI = tested on: LOX IMVI
M14 = tested on: M14
MCF7 = tested on: MCF7
MDA-MB-231 = tested on: MDA-MB-231
MDA-MB-435 = tested on: MDA-MB-435
MDA-N = tested on: MDA-N
Malme-3M = tested on: Malme-3M
NCI-H23 = tested on: NCI-H23
NCI-H460 = tested on: NCI-H460
NCI-H522 = tested on: NCI-H522
NCI/ADR-RES = tested on: NCI/ADR-RES
OVCAR-3 = tested on: OVCAR-3
OVCAR-4 = tested on: OVCAR-4
OVCAR-5 = tested on: OVCAR-5
OVCAR-8 = tested on: OVCAR-8
PC-3 = tested on: PC-3
RPMI-8226 = tested on: RPMI-8226
SF-268 = tested on: SF-268
SF-539 = tested on: SF-539
SK-MEL-28 = tested on: SK-MEL-28
SK-MEL-2 = tested on: SK-MEL-2
SK-MEL-5 = tested on: SK-MEL-5
SN12C = tested on: SN12C
SNB-19 = tested on: SNB-19
SNB-75 = tested on: SNB-75
SR = tested on: SR
SW-620 = tested on: SW-620
T47D = tested on: T47D
TK-10 = tested on: TK-10
U-251 = tested on: U-251
UACC-257 = tested on: UACC-257
UACC-62 = tested on: UACC-62
UO-31 = tested on: UO-31
MOLT-4 = tested on: MOLT-4
RXF 393 = tested on: RXF 393
SF-295 = tested on: SF-295
SK-OV-3 = tested on: SK-OV-3
NCI-H226 = tested on: NCI-H226

For O=C(C=P(c1ccccc1)(c1ccccc1)c1ccccc1)C12CC3CC(CC(C3)C1)C2, the GI50 (786-0) was 17.3 µM (inactive), the GI50 (A498) was 18.8 µM (inactive) and the GI50 (A549) was 16.7 µM (inactive). For the same compound, the GI50 (ACHN) was 16.2 µM (inactive), the GI50 (BT-549) was 18.2 µM (inactive) and the GI50 (CAKI-1) was 16.1 µM (inactive). For the same compound, the GI50 (CCRF-CEM) was 14.4 µM (inactive), the GI50 (COLO 205) was 11.9 µM (inactive) and the GI50 (DU-145) was 19.1 µM (inactive). The GI50 (EKVX) was 15.6 µM (inactive), the GI50 (HCC 2998) was 16.8 µM (inactive) and the GI50 (HCT-116) was 13.2 µM (inactive). For the same compound, the GI50 (HCT-15) was 13.4 µM, the GI50 (HL-60) was 8.75 µM (inactive) and the GI50 (HOP-62) was 17.2 µM (inactive). For the same compound, the GI50 (HOP-92) was 20.5 µM (inactive), the GI50 (HT-29) was 11.2 µM (inactive) and the GI50 (Hs-578T) was 16.5 µM (inactive). The GI50 (IGROV-1) was 16 µM (inactive), the GI50 (K562) was < 0.01 µM (active) and the GI50 (KM12) was 15 µM (inactive). For the same compound, the GI50 (LOX IMVI) was 16.4 µM (inactive), the GI50 (M14) was 16 µM (inactive) and the GI50 (MCF7) was 17 µM (inactive). The GI50 (MDA-MB-231) was 15.7 µM (inactive), the GI50 (MDA-MB-435) was 12.9 µM (inactive) and the GI50 (MDA-N) was 14.3 µM (inactive). The GI50 (Malme-3M) was 19.2 µM (inactive), the GI50 (NCI-H23) was 16.7 µM (inactive) and the GI50 (NCI-H460) was 16.4 µM (inactive). For the same compound, the GI50 (NCI-H522) was 6.55 µM (inactive), the GI50 (NCI/ADR-RES) was 16.5 µM (inactive) and the GI50 (OVCAR-3) was 14.9 µM (inactive). The GI50 (OVCAR-4) was 18.7 µM (inactive), the GI50 (OVCAR-5) was 17.1 µM (inactive) and the GI50 (OVCAR-8) was 17.7 µM (inactive). For the same compound, the GI50 (PC-3) was 11.7 µM (inactive), the GI50 (RPMI-8226) was 4.06 µM (inactive) and the GI50 (SF-268) was 20.8 µM (inactive). The GI50 (SF-539) was 20 µM (inactive), the GI50 (SK-MEL-28) was 16.8 µM (inactive) and the GI50 (SK-MEL-2) was 15.8 µM (inactive). The GI50 (SK-MEL-5) was 14.8 µM (inactive), the GI50 (SN12C) was 15.9 µM (inactive) and the GI50 (SNB-19) was 12.6 µM (inactive). For the same compound, the GI50 (SNB-75) was 16.9 µM (inactive), the GI50 (SR) was 55 µM (inactive) and the GI50 (SW-620) was 16.1 µM (inactive). For the same compound, the GI50 (T47D) was 16.1 µM (inactive), the GI50 (TK-10) was 11.8 µM (inactive) and the GI50 (U-251) was 17.7 µM (inactive). For the same compound, the GI50 (UACC-257) was 17.2 µM (inactive), the GI50 (UACC-62) was 14.7 µM (inactive) and the GI50 (UO-31) was 14.6 µM (inactive).
COc1nc(C#CC2CCCCC2)nc(OC)n1 was tested, and the GI50 (786-0) was 1.69 µM (inactive), the GI50 (A498) was 21.4 µM (inactive) and the GI50 (A549) was 3.95 µM (inactive). For the same compound, the GI50 (ACHN) was 4.26 µM (inactive), the GI50 (BT-549) was 3.37 µM (inactive) and the GI50 (CAKI-1) was 3.39 µM (inactive). The GI50 (CCRF-CEM) was 1.12 µM (inactive), the GI50 (COLO 205) was 6.1 µM (inactive) and the GI50 (DU-145) was 3.92 µM (inactive). The GI50 (EKVX) was 16 µM (inactive), the GI50 (HCT-116) was 0.401 µM (active) and the GI50 (HCT-15) was 1.38 µM. For the same compound, the GI50 (HL-60) was 1.12 µM (inactive), the GI50 (HOP-62) was 3.72 µM (inactive) and the GI50 (HT-29) was 4.81 µM (inactive). The GI50 (Hs-578T) was 3.58 µM (inactive), the GI50 (IGROV-1) was 3.79 µM (inactive) and the GI50 (K562) was 3.92 µM (inactive). For the same compound, the GI50 (KM12) was 4.76 µM (inactive), the GI50 (LOX IMVI) was 1.51 µM (inactive) and the GI50 (M14) was 2.38 µM (inactive). The GI50 (MCF7) was 2.14 µM (inactive), the GI50 (MDA-MB-231) was 2.3 µM (inactive) and the GI50 (MDA-MB-435) was 2.08 µM (inactive). For the same compound, the GI50 (MDA-N) was 3.28 µM (inactive), the GI50 (MOLT-4) was 2.98 µM (inactive) and the GI50 (Malme-3M) was 1.95 µM (inactive). For the same compound, the GI50 (NCI-H23) was 1.45 µM (inactive), the GI50 (NCI-H460) was 5.6 µM (inactive) and the GI50 (NCI-H522) was 1.59 µM (inactive). For the same compound, the GI50 (NCI/ADR-RES) was 1.64 µM (inactive), the GI50 (OVCAR-3) was 3.22 µM (inactive) and the GI50 (OVCAR-4) was 5.42 µM (inactive). The GI50 (OVCAR-5) was 2.51 µM (inactive), the GI50 (OVCAR-8) was 1.61 µM (inactive) and the GI50 (PC-3) was 4.21 µM (inactive). The GI50 (RPMI-8226) was 1.51 µM (inactive), the GI50 (RXF 393) was 4.91 µM (inactive) and the GI50 (SF-268) was 4.07 µM (inactive). The GI50 (SF-295) was 5.24 µM (inactive), the GI50 (SF-539) was 2.45 µM (inactive) and the GI50 (SK-MEL-28) was 8.18 µM (inactive). For the same compound, the GI50 (SK-MEL-2) was 3.81 µM (inactive), the GI50 (SK-MEL-5) was 3.06 µM (inactive) and the GI50 (SK-OV-3) was 13.1 µM (inactive). For the same compound, the GI50 (SN12C) was 2.2 µM (inactive), the GI50 (SNB-19) was 16.6 µM (inactive) and the GI50 (SNB-75) was 9.71 µM (inactive). The GI50 (SR) was 2.3 µM (inactive), the GI50 (SW-620) was 3.3 µM (inactive) and the GI50 (T47D) was 31.7 µM (inactive). The GI50 (U-251) was 3.39 µM (inactive), the GI50 (UACC-257) was 11 µM (inactive) and the GI50 (UACC-62) was 1.28 µM (inactive). For the same compound, the GI50 (UO-31) was 2.54 µM (inactive).
In the case of CN1C(=O)C2(c3ccccc31)C1CC3C(CO1)C1C2C3(CO)CN1C#N (stereo not given), the GI50 (786-0) is reported as > 100 µM (inactive), the GI50 (A549) is reported as > 100 µM (inactive) and the GI50 (ACHN) is reported as > 100 µM (inactive). For the same compound, the GI50 (BT-549) was > 100 µM (inactive), the GI50 (CAKI-1) was > 100 µM (inactive) and the GI50 (CCRF-CEM) was > 100 µM (inactive). The GI50 (COLO 205) was > 100 µM (inactive), the GI50 (DU-145) was > 100 µM (inactive) and the GI50 (EKVX) was > 100 µM (inactive). The GI50 (HCC 2998) was > 100 µM (inactive), the GI50 (HCT-116) was > 100 µM (inactive) and the GI50 (HCT-15) was greater than 100 µM. The GI50 (HL-60) was > 100 µM (inactive), the GI50 (HOP-62) was > 100 µM (inactive) and the GI50 (HOP-92) was > 100 µM (inactive). For the same compound, the GI50 (HT-29) was > 100 µM (inactive), the GI50 (Hs-578T) was > 100 µM (inactive) and the GI50 (IGROV-1) was > 100 µM (inactive). For the same compound, the GI50 (K562) was > 100 µM (inactive), the GI50 (KM12) was > 100 µM (inactive) and the GI50 (LOX IMVI) was > 100 µM (inactive). The GI50 (M14) was > 100 µM (inactive), the GI50 (MCF7) was > 100 µM (inactive) and the GI50 (MDA-MB-231) was > 100 µM (inactive). For the same compound, the GI50 (MDA-MB-435) was > 100 µM (inactive), the GI50 (MDA-N) was > 100 µM (inactive) and the GI50 (MOLT-4) was > 100 µM (inactive). The GI50 (Malme-3M) was > 100 µM (inactive), the GI50 (NCI-H226) was > 100 µM (inactive) and the GI50 (NCI-H23) was > 100 µM (inactive). The GI50 (NCI-H460) was > 100 µM (inactive), the GI50 (NCI-H522) was > 100 µM (inactive) and the GI50 (NCI/ADR-RES) was > 100 µM (inactive). For the same compound, the GI50 (OVCAR-3) was > 100 µM (inactive), the GI50 (OVCAR-4) was > 100 µM (inactive) and the GI50 (OVCAR-5) was > 100 µM (inactive). For the same compound, the GI50 (OVCAR-8) was > 100 µM (inactive), the GI50 (PC-3) was > 100 µM (inactive) and the GI50 (RPMI-8226) was > 100 µM (inactive). The GI50 (RXF 393) was > 100 µM (inactive), the GI50 (SF-268) was > 100 µM (inactive) and the GI50 (SF-295) was > 100 µM (inactive). For the same compound, the GI50 (SK-MEL-28) was > 100 µM (inactive), the GI50 (SK-MEL-2) was > 100 µM (inactive) and the GI50 (SK-MEL-5) was > 100 µM (inactive). For the same compound, the GI50 (SK-OV-3) was > 100 µM (inactive), the GI50 (SN12C) was > 100 µM (inactive) and the GI50 (SNB-19) was > 100 µM (inactive). The GI50 (SNB-75) was > 100 µM (inactive), the GI50 (SR) was > 100 µM (inactive) and the GI50 (T47D) was > 100 µM (inactive). The GI50 (TK-10) was > 100 µM (inactive), the GI50 (U-251) was > 100 µM (inactive) and the GI50 (UACC-257) was > 100 µM (inactive). The GI50 (UACC-62) was > 100 µM (inactive) and the GI50 (UO-31) was > 100 µM (inactive).
